“Also recorded” adds a separate entry of the source.
Columns and labels:
[1] = tested on: arachidonate 5-lipoxygenase (ALOX5); assay: Affymetrix gene array on skin explants, ALOX5; assay type: cell-based, human; settings: topical, 24 hours
Description: (§1) Subcutaneous fat from full thickness skin, obtained from surgical waste material from breast reduction procedures, was removed with a scalpel. Three healthy Caucasian female donors were used for this study. The female donors differed from those of the skin-treatment study outlined previously 8 mm punch biopsies were taken from the skin (and these biopsies are now referred to as skin explants). Skin explants were put on Milipore cell culture inserts (12 mm diameter). Inserts containing skin explants were put in 6-well plates (one insert/well) and 1 mL of supplemented keratinocyte medium (ex Cascade Biologics) was added to each well. A tretinoin-containing cream (Aberela® ex. Janssen): 0.05% tretinoin in the cream, was applied topically to each explant (5 μL/cm^2) using a positive displacement pipette. A placebo cream without tretinoin was used as a control. The skin explants were incubated with tretinoin for 24 hours at 37° C. in 5% CO2-humidified air.
(§2) RNA concentration was measured with ND-1000 spectrophotometer (ex. NanoDrop Technologies) and RNA quality was evaluated using the Agilent 2100 bioanalyzer system (ex. Agilent Technologies). 250 nanograms of total RNA from each skin or skin explant sample was used to prepare biotinylated fragmented cRNA according to the GeneChip® 3′IVT Express Kit Manual (PN702646 Rev 1, ex. Affymetrix Inc.). Affymetrix GeneChip® expression arrays (Human Genome U133 Plus 2.0) were hybridized for 16 hours in a 45° C. incubator, rotated at 60 rpm. According to the GeneChip Expression Wash, Stain and Scan Manual (PN 702731 Rev 2, ex. Affymetrix Inc.) the arrays were washed and stained using the Fluidics Station 450 and scanned using the GeneChip® Scanner 3000 7G.
(§3) Analysis of the gene expression data was carried out in the statistical computing language R (http://www.r-project.org) using packages available from the Bioconductor project (www.bioconductor.org). The raw data was normalized using the robust multi-array average (RMA) method. In order to search for differentially expressed genes between the X samples and the Y samples group an empirical Bayes moderated t-test was then applied using the ‘limma’ package.
(§4) Skin explants were obtained as detailed in Example 3.1.

[2] = tested on: Fibroblast growth factor (FGF); assay: FGF production in human skin explants; assay type: cell-based; settings: topical (FIG. 13)
Description: Full thickness skin from surgical waste material from breast reductions was collected. Subcutaneous fat was removed with a scalpel. 8 mm punch biopsies was taken from the skin and referred to as skin explants. Thereafter, the explants were put on Millipore cell culture inserts (12 mm in diameter). Inserts containing skin explants were put in 6-well plate (1 insert/well) and 1 mL of supplemented keratinocyte medium (Cascade Biologics) was added to each well to allow survival and nutrition of the explants. […] Supernatants were thereafter collected and analyzed for GM-CSF production.
Human Skin Explants were Obtained and Treated as Described in Example 7.3.
The methodology described in Example 3.1 was adapted in order analyze FGF production in skin explants.

[3] = tested on: interleukin-6 [IL-6]; assay: Interleukin-6 production in PMA-stimulated dermal fibroblasts; assay type: cell-based, human; settings: PMA 10 nM (FIG. 7)
Description: Human dermal fibroblast cell cultures were prepared according to Example 3.1. To induce inflammation in the cells PMA (phorbol myristate acetate) (ex. Sigma) was used at a concentration of 10 nM. […] The cells were stimulated for 24 h and the culture supernatant was collected and stored at −20° C. until further analysis
(§5) Experimental method as outlined in Example 3.1 was modified in order to analyze IL-6 levels extracted from dermal fibroblasts stimulated for 6 days with all-trans retinoic acid, retinol, arachidonic acid, β-aescin, and […] (ethyl ester) at a range of concentrations. Experiments were performed in duplicates.

[4] = tested on: hydroxysteroid (17-beta) dehydrogenase 2 (HSD17B2); assay: Affymetrix gene array on skin explants, HSD17B2; assay type: cell-based, human; settings: topical, 24 hours
Description: as §1, §2, §3, §4

[5] = tested on: Keratin 1/10; assay: Keratin 1/10 production in human normal keratinocytes; assay type: cell-based; settings: for synthesis of Keratin 1/10: human normal keratinocytes (FIG. 15)
Description: (§6) Keratinocytes were cultured in commercially available keratinocyte medium M154 (Cascade Biologics/Invitrogen) # M154500 with a final calcium […]. Supplements were added meeting following final concentrations of growth factors; bovine pituitary extract (BPE), 0.2% v/v·bovine insulin, 5 μg/ml·hydrocortisone, 0.18 μg/ml·bovine transferrin, 5 μg/ml·human epidermal growth factor, 0.2 ng/ml.
Medium was changed every other day. Cells were grown to 80% confluence prior stimulation with compounds. Experiments were performed in 24-well plates. The cells were treated with individual compounds of the invention for 6 days. After 3 days the medium was refreshed. A source of calcium ions was used as a positive control. After 6 days tissue culture medium was stored in −20° C. until analysis.
Cells were cultured as described in Example 5.1. and the methodology described in Example 3.1 was adapted in order analyze keratin 1/10 production.

[6] = tested on: steroid 5 alpha-reductase 3 (SRD5A3); assay: Affymetrix gene array on skin explants, SRD5A3; assay type: cell-based, human; settings: topical, 24 hours
Description: as §1, §2, §3, §4

[7] = tested on: Kallikrein 8; assay: Kallikrein 8 ELISA in human normal keratinocytes; assay type: cell-based; settings: 4 days stimulation (FIG. 14)
Description: as §6
Keratinocytes used for Kallikrein 8 experiments were cultured as described in example 2.1. Experiments were performed in monolayers with 80% confluence. The cells were stimulated for 4 days prior to kallikrein 8 analysis with the different actives and then culture supernatant were collected and stored in −20° C. until further analysis. Kallikrein 8 production was analysed in cell culture supernatants from stimulated keratinocytes using a ELISA assay specific for Kallikrein 8 (Uscn Life Science Inc, E90690Hu). Results were compared with cell culture supernatants from DMSO vehicle treated cells. The assays utilized a 96-well microplate format and were processed according to the manufacturer's protocol, including generation of a standard curve prepared in background assay diluents. Absorbance of the assay dye was read at a Synergy HT plate reader. Values that fell within the linear range of the calibration assay were accepted. Quantities were determined by comparison to standard curves obtained for KLK8.

[8] = tested on: GM-CSF; assay: GM-CSF production in PMA-stimulated human dermal fibroblasts; assay type: cell-based; settings: PMA 10 nM (FIG. 8)
Description: Cell Cultures were Prepared According to Example 3.1
To induce inflammation in the cells PMA (phorbol myristate acetate) (ex. Sigma) was used at a concentration of 10 nM. […] The cells were stimulated for 24 h and the culture supernatant was collected and stored at −20° C. until further analysis.
as §5, with “GM-CSGF” for “IL-6”, “in human dermals” for “extracted from dermal”, “stimulated” for “stimulated for 6 days”

For `C=C1C[C@]23C[C@@]1(O)CC[C@H]2[C@@]12C=C[C@H](O)[C@@](C)(C(=O)O1)[C@@H]2[C@@H]3C(=O)O` [Gibberellic acid, (3S,3aS,4S,4aS,7S,9aR,9bR,12S)-7,12-dihydroxy-3-methyl-6-methylene-2-oxoperhydro-4a,7-methano-9b,3-propenoazuleno[1,2-b]furan-4-carboxylic acid], the ALOX5 gene expression [1] was −1.01 log 2−ratio, the FGF production [2] was “higher FGF production than retinoic acid; also recorded: Stimulation of FGF production” and the interleukin-6 production [3] was “inhibit interleukin-6 production”. The HSD17B2 gene expression [4] was −0.52 log 2−ratio, the “synthesis of Keratin 1/10” value ([5]; 1.2 microM) was “significant increase in the synthesis of Keratin 1/10” and the SRD5A3 gene expression [6] was −0.75 log 2−ratio. For the same compound, the “synthesis of kallikrein 8” value [7] was “significant increase in the synthesis of kallikrein 8” and the GM-CSF production [8] was “inhibition of GM-CSF production”.

For `CC(=O)N[C@@H](CC(=O)O)C(=O)O` [N-Acetyl aspartic acid, (2S)-2-Acetamidobutanedioic acid], the ALOX5 gene expression [1] was 0.15 log 2−ratio, the FGF production [2] was “higher FGF production than retinoic acid; also recorded: Stimulation of FGF production” and the interleukin-6 production [3] was “inhibit interleukin-6 production”. The HSD17B2 gene expression [4] was −1.46 log 2−ratio, the “production of Keratin 1/10” value ([5]; concentration not given) was “stimulate production of Keratin 1/10” and the SRD5A3 gene expression [6] was −1.54 log 2−ratio. The “synthesis of kallikrein 8” value [7] was “significant increase in the synthesis of kallikrein 8” and the GM-CSF production [8] was “inhibition of GM-CSF production”.

For `O=C1C[C@@H](c2ccc(O)cc2)Oc2cc(O)cc(O)c21` [Naringenin, (S)-2,3-Dihydro-5,7-dihydroxy-2-(4-hydroxyphenyl)-4H-1-benzopyran-4-one], the ALOX5 gene expression [1] was −0.69 log 2−ratio, the FGF production [2] was “higher FGF production than retinoic acid” and the FGF production ([2]; listed as naringenin) was “Stimulation of FGF production”. The interleukin-6 production [3] was “inhibit interleukin-6 production”, the HSD17B2 gene expression [4] was −0.83 log 2−ratio and the “synthesis of Keratin 1/10” value ([5]; 150 microM) was “significant increase in the synthesis of Keratin 1/10”. The SRD5A3 gene expression [6] was 1.25 log 2−ratio, the “synthesis of kallikrein 8” value [7] was “significant increase in the synthesis of kallikrein 8” and the GM-CSF production [8] was “inhibition of GM-CSF production”.

— US20140301961A1, “COMPOUNDS WITH ANTI-AGING ACTIVITIES” (priority 2011, published 2014)
